Results as given in US9096608B2, “Pharmaceutically active pyrazolo-triazine derivatives” (LEAD DISCOVERY CENTER GMBH, priority 2012, dated 2015).
Where two headings read alike, the source gives them in different places.

Columns and labels:
Assay type in all cases: biochemical
CDK2/CycA = biological target: T1, CDK2/CycA (Homo sapiens, UniProt P24941); assay: CDK2 Enzymatic Activity Assay (Lance Kinase Activity Assay, FRET); settings: for CDK2 IC50 range class: Table 5B, symbols per IC50 ranges of b615
T1 construct: purchased Proqinase
In short: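 Compounds serially diluted 1:3 over 8 steps, run with CDK2/CycA, ULight-MBP substrate and ATP in HEPES pH 7.5 buffer for 1 h at room temperature. LANCE TR-FRET detection with Eu-anti-phospho-MBP after EDTA stop; IC50 from sigmoidal dose-response curves.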

CDK9/Cyclin T1 = biological target: T2, CDK9/Cyclin T1 (Homo sapiens, UniProt P50750); assay: CDK9 Enzymatic Activity Assay (Lance Kinase Activity Assay, FRET); settings: for CDK9: Selectivity of CDK7 inhibition over CDK9 inhibition [fold]: Table 5B, symbols per IC50 ranges of b615
T2 construct: purchased Invitrogen
T2 sequence (P50750 whole entry): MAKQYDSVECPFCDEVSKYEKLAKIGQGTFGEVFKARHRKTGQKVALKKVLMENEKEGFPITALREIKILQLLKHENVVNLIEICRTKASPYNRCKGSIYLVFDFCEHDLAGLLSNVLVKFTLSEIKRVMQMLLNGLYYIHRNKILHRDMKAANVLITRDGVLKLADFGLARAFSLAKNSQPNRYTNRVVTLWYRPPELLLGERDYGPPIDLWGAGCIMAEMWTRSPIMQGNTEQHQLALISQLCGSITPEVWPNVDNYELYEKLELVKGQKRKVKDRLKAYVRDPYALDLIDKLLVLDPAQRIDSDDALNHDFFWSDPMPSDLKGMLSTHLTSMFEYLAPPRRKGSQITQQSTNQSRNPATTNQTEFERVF
T2 sequence (O60563 whole entry partner): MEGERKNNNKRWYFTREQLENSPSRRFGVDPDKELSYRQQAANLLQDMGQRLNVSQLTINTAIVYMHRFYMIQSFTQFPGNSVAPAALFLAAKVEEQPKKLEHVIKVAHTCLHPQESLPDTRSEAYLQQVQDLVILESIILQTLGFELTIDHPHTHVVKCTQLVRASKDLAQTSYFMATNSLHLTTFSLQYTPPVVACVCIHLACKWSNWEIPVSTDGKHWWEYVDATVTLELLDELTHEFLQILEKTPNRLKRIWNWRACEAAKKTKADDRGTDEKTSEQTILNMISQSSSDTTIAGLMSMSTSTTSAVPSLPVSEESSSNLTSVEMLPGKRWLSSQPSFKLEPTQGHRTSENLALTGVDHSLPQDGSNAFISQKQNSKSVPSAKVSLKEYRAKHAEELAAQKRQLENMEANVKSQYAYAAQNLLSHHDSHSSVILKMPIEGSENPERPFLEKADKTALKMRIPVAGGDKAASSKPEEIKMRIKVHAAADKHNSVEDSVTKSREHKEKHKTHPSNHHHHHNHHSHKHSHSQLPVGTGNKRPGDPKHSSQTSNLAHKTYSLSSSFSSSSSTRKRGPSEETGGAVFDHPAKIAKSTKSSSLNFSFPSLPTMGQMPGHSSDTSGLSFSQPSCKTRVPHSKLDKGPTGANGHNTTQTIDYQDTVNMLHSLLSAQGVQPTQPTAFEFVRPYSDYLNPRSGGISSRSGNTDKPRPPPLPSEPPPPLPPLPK
In short: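 TR-FRET detection of ULight-MBP substrate phosphorylation by CDK9/cyclin T1 using a Eu-anti-phospho-MBP antibody, in 50 mM HEPES pH 7.5, 10 mM MgCl2, 1 mM EGTA, 2 mM DTT, 0.01% Tween-20. Kinase reaction 1 h at room temperature, then EDTA detection buffer for 1 h before reading.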

CDK7/CycH/Mat1 = biological target: T3, CDK7/CycH/Mat1 (Homo sapiens, UniProt P50613); assay: CDK7 Enzymatic Activity Assay (Lance Kinase Activity Assay, FRET)
T3 construct: purchased Carna
T3 sequence (P50613 whole entry): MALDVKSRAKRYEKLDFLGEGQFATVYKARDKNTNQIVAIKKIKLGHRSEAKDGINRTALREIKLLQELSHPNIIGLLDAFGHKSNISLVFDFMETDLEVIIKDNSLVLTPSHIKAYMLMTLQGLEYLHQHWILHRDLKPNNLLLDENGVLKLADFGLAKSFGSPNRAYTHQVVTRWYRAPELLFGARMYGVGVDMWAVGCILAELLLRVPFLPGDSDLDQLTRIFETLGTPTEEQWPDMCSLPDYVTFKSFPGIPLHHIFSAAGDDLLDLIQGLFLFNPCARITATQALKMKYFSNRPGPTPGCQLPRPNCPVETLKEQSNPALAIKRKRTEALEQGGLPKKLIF
T3 sequence (P51946 whole entry partner): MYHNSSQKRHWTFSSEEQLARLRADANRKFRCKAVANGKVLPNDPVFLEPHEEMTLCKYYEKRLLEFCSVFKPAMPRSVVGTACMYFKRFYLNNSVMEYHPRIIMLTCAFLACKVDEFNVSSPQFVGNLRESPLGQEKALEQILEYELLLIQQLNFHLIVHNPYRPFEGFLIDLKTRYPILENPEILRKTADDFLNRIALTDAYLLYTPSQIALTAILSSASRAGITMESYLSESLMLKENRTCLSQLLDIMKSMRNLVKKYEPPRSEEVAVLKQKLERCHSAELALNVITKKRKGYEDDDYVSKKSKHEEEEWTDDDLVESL
T3 sequence (P51948 whole entry partner): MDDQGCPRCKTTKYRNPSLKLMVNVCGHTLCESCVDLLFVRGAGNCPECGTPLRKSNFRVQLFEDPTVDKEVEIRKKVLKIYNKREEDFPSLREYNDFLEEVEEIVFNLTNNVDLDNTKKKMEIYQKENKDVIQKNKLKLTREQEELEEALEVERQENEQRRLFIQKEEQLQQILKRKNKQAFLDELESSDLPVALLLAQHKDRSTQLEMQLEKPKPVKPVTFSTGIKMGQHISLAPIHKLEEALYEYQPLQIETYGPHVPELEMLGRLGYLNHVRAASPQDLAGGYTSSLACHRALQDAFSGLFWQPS
In short: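 TR-FRET (LANCE) kinase assay with ULight-MBP peptide substrate and Eu-labelled anti-phospho antibody; compounds in 8-point 1:3 series in HEPES 50 mM pH 7.5, MgCl2 10 mM, EGTA 1 mM, DTT 2 mM, 0.01% Tween-20.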

[1] = Table 5A, 25 μM ATP final, read-out: CDK7: IC50 [mM] for CDK7 inhibition (the above defined ranges apply)

Structure (SMILES) | CDK2 IC50 range class (CDK2/CycA) | CDK9: Selectivity of CDK7 inhibition over CDK9 inhibition [fold] (CDK9/Cyclin T1) | IC50 (CDK7/CycH/Mat1; [1]) | Selectivity CDK7 over CDK2 [fold] (CDK2/CycA; Table 7, lower part) | IC50 (CDK2/CycA; Table 7, upper part) | Selectivity CDK7 over CDK9 [fold] (CDK9/Cyclin T1; Table 7, lower part) | IC50 (CDK9/Cyclin T1; Table 7, upper part) | IC50 (CDK7/CycH/Mat1; Table 7, lower part, read-out: IC50 [nM] CDK7) | IC50 (CDK7/CycH/Mat1; Table 7, upper part, read-out: IC50 [nM] CDK7)
COc1cccc([C@H](C)Nc2nc(NC(CN)c3ccccc3)nc3c(C(C)C)cnn23)c1 (stereo partly drawn) [(VIII-z), N2-(2-amino-1-phenylethyl)-8-isopropyl-N4-((S)-1-(3-methoxyphenyl)ethyl)pyrazolo[1,5-a][1,3,5]triazine-2,4-diamine] | +++ (IC50>2500 nM) | +++ (IC50>2500 nM) | > 100 nM |  |  |  |  |  | 
CC(C)c1cnn2c(N[C@@H](C)c3ccccc3)nc([S+]([O-])C3CCNCC3)nc12 (stereo partly drawn) [(X-a), 8-isopropyl-N-((S)-1-phenylethyl)-2-(piperidin-4-ylsulfinyl)pyrazolo[1,5-a][1,3,5]triazin-4-amine] | +++ (IC50>2500 nM) | +++ (IC50>2500 nM) | < 10 nM |  |  |  |  |  | 
COc1ccccc1[C@H](C)Nc1nc([S+]([O-])C2CCNCC2)nc2c(C(C)C)cnn12 (stereo partly drawn) [(X-c), 8-isopropyl-N-((S)-1-(2-methoxyphenyl)ethyl)-2-(piperidin-4-ylsulfinyl)pyrazolo[1,5-a][1,3,5]triazin-4-amine] | +++ (IC50>2500 nM) | +++ (IC50>2500 nM) | < 10 nM | 1612 fold | > 2500 nM | 1475 fold | > 2500 nM | < 10 nM | < 10 nM
COc1cccc([C@H](C)Nc2nc(SC3CCNCC3)nc3c(C(C)C)cnn23)c1 [(X-e), (S)-8-isopropyl-N-(1-(3-methoxyphenyl)ethyl)-2-(piperidin-4-ylthio)pyrazolo[1,5-a][1,3,5]triazin-4-amine] | +++ (IC50>2500 nM) | +++ (IC50>2500 nM) | > 100 nM |  |  |  |  |  | 
COc1cccc([C@H](C)Nc2nc(S(=O)(=O)C3CCNCC3)nc3c(C(C)C)cnn23)c1 [(X-f), (S)-8-isopropyl-N-(1-(3-methoxyphenyl)ethyl)-2-(piperidin-4-ylsulfonyl)pyrazolo[1,5-a][1,3,5]triazin-4-amine] | +++ (IC50>2500 nM) | +++ (IC50>2500 nM) | 10 to 30 nM |  |  |  |  |  | 
COc1cccc([C@H](C)Nc2nc(CN3CCNCC3)nc3c(C(C)C)cnn23)c1 [(XXIX-1), (S)-8-isopropyl-N-(1-(3-methoxyphenyl)ethyl)-2-(piperazin-1-ylmethyl)pyrazolo[1,5-a][1,3,5]triazin-4-amine] | +++ (IC50>2500 nM) | +++ (IC50>2500 nM) | > 100 nM |  |  |  |  |  | 
COc1cccc([C@H](C)Nc2nc(CNCCN)nc3c(C(C)C)cnn23)c1 [(XXIX-2), (S)-N1-((8-isopropyl-4-((1-(3-methoxyphenyl)ethyl)amino)pyrazolo[1,5-a][1,3,5]triazin-2-yl)methyl)ethane-1.2-diamine] | +++ (IC50>2500 nM) | +++ (IC50>2500 nM) | > 100 nM |  |  |  |  |  | 
COc1cccc([C@H](C)Nc2nc(CN(C)CC3CNC3)nc3c(C(C)C)cnn23)c1 [(XXIX-3), (S)-2-(((azetidin-3-ylmethyl)(methyl)amino)methyl)-8-isopropyl-N-(1-(3-methoxyphenyl)ethyl)pyrazolo[1,5-a][1,3,5]triazin-4-amine] | +++ (IC50>2500 nM) | +++ (IC50>2500 nM) | > 100 nM |  |  |  |  |  | 
COc1cccc([C@H](C)Nc2nc(CNC3CCNC3)nc3c(C(C)C)cnn23)c1 (stereo partly drawn) [(XXIX-4), 8-isopropyl-N-((S)-1-(3-methoxyphenyl)ethyl)-2-((pyrrolidin-3-ylamino)methyl)pyrazolo[1,5-a][1,3,5]triazin-4-amine] | +++ (IC50>2500 nM) | +++ (IC50>2500 nM) | 30 to 100 nM |  |  |  |  |  | 
COc1cccc([C@H](C)Nc2nc(CNCCCN3CCOCC3)nc3c(C(C)C)cnn23)c1 [(XXIX-5), (S)-8-isopropyl-N-(1-(3-methoxyphenyl)ethyl)-2-(((3-morpholinopropyl)amino)methyl)pyrazolo[1,5-a][1,3,5]triazin-4-amine] | +++ (IC50>2500 nM) | +++ (IC50>2500 nM) | > 100 nM |  |  |  |  |  | 
COc1cccc([C@H](C)Nc2nc(CN(C)CCN3CCCC3)nc3c(C(C)C)cnn23)c1 [(XXIX-6), (S)-8-isopropyl-N-(1-(3-methoxyphenyl)ethyl)-2-((methyl(2-(pyrrolidin-1-yl)ethyl)amino)methyl)pyrazolo[1,5-a][1,3,5]triazin-4-amine] | +++ (IC50>2500 nM) | +++ (IC50>2500 nM) | > 100 nM |  |  |  |  |  | 
COc1cccc([C@H](C)Nc2nc(CNCCN3CCOCC3)nc3c(C(C)C)cnn23)c1 [(XXIX-7), (S)-8-isopropyl-N-(1-(3-methoxyphenyl)ethyl)-2-(((2-morpholinoethyl)amino)methyl)pyrazolo[1,5-a][1,3,5]triazin-4-amine] | +++ (IC50>2500 nM) | +++ (IC50>2500 nM) | > 100 nM |  |  |  |  |  | 
COc1cccc([C@H](C)Nc2nc(CN(C)CCCN3CCCCC3)nc3c(C(C)C)cnn23)c1 [(XXIX-8), (S)-8-isopropyl-N-(1-(3-methoxyphenyl)ethyl)-2-((methyl(3-(piperidin-1-yl)propyl)amino)methyl)pyrazolo[1,5-a][1,3,5]triazin-4-amine] | +++ (IC50>2500 nM) | +++ (IC50>2500 nM) | > 100 nM |  |  |  |  |  | 
COc1cccc([C@H](C)Nc2nc(CN3CC(N4CCC(F)(F)C4)C3)nc3c(C(C)C)cnn23)c1 [(XXIX-9), (S)-2-((3-(3,3-difluoropyrrolidin-1-yl)azetidin-1-yl)methyl)-8-isopropyl-N-(1-(3-methoxyphenyl)ethyl)pyrazolo[1,5-a][1,3,5]triazin-4-amine] | +++ (IC50>2500 nM) | +++ (IC50>2500 nM) | > 100 nM |  |  |  |  |  | 
COc1cccc([C@H](C)Nc2nc(CN3CC(N4CCCC4=O)C3)nc3c(C(C)C)cnn23)c1 [(XXIX-10), (S)-1-(1-((8-isopropyl-4-((1-(3-methoxyphenyl)ethyl)amino)pyrazolo[1,5-a][1,3,5]triazin-2-yl)methyl)azetidin-3-yl)pyrrolidin-2-one] | +++ (IC50>2500 nM) | +++ (IC50>2500 nM) | > 100 nM |  |  |  |  |  | 
COCCN1CCN(Cc2nc(N[C@@H](C)c3cccc(OC)c3)n3ncc(C(C)C)c3n2)CC1 [(XXIX-11), (S)-8-isopropyl-2-((4-(2-methoxyethyl)piperazin-1-yl)methyl)-N-(1-(3-methoxyphenyl)ethyl)pyrazolo[1,5-a][1,3,5]triazin-4-amine] | +++ (IC50>2500 nM) | +++ (IC50>2500 nM) | > 100 nM |  |  |  |  |  | 
COc1cccc([C@H](C)Nc2nc(C(=O)N3CC4(CNC4)C3)nc3c(C(C)C)cnn23)c1 [(XXVI-1), (S)-(8-isopropyl-4-((1-(3-methoxyphenyl)ethyl)amino)pyrazolo[1,5-a][1,3,5]triazin-2-yl)(2,6-diazaspiro[3.3]heptan-2-yl)methanone] | +++ (IC50>2500 nM) | +++ (IC50>2500 nM) | > 100 nM |  |  |  |  |  | 
COc1cccc([C@H](C)Nc2nc(C(=O)N(C)CCN3CCOCC3)nc3c(C(C)C)cnn23)c1 [(XXVI-2), (S)-8-isopropyl-4-((1-(3-methoxyphenyl)ethyl)amino)-N-methyl-N-(2-morpholinoethyl)pyrazolo[1,5-a][1,3,5]triazine-2-carboxamide] | +++ (IC50>2500 nM) | +++ (IC50>2500 nM) | > 100 nM |  |  |  |  |  | 
COc1cccc([C@H](C)Nc2nc(C(=O)N(C)CCN3CCCC3)nc3c(C(C)C)cnn23)c1 [(XXVI-3), (S)-8-isopropyl-4-((1-(3-methoxyphenyl)ethyl)amino)-N-methyl-N-(2-(pyrrolidin-1-yl)ethyl)pyrazolo[1,5-a][1,3,5]triazine-2-carboxamide] | +++ (IC50>2500 nM) | +++ (IC50>2500 nM) | > 100 nM |  |  |  |  |  | 
